According to patent US8487131B2 (Sanford-Burnham Medical Research Institute, priority 2009, dated 2013):
“Also recorded” adds a separate entry of the source.

What was measured:
H460 cells = assay: Cell viability, ATP-LITE assay, H460; type: cell-based, human; conditions: 72 hours of treatment
Protocol: The activity of the compounds against human cancer cell lines (PC3, H460, H1299) were assessed by using the ATP-LITE assay (PerkinElmer). All cells were seeded in either […] or RPMI1640 medium with 5 mM L-glutamine supplemented with 5% fetal bovine serum (Mediatech Inc.), penicillin and streptomycin (Omega). For maintenance, cells were cultured in 5% FBS. Cells plated into 96 well plates at varying initial densities depending on doubling time. […] Compounds were diluted to final concentrations with 0.1% DMSO. Prior to dispensing compounds onto cells, fresh 5% media was placed into wells. Administration of compounds occurred 24 hours after seeding into the fresh media. Cell viability was evaluated using ATP-LITE reagent (PerkinElmer) after 72 hours of treatment. Data were normalized to the DMSO control-treated cells using Prism version 5.01 (Graphpad Software).

[1] = In vitro rat plasma stability; type: in vitro ADME
Source text: (§1) Next, we examined the pharmacological properties of the isomers as chirality could greatly affect such properties due to stereoselective metabolism. To test the pharmacological properties of diastereoisomers 11-14, we determined their in vitro rat plasma stability, rat microsomal stability, and cell membrane permeability (Table 4).

[2] = test system: Bax/Bak double knockout MEF cells (MEF/DKO); assay: Apoptosis, FITC-Annexin V/PI assay, MEF/DKO; type: cell-based, mouse; conditions: for toxicity in MEF/DKO cells: 30 μM, FITC-Annexin V/PI
Protocol: Wild-type MEF and DKO/MEF were seeded in 24-well plate at a seeding density of half a million per well (in 1 ml of DMEM medium supplemented by 10% FCS). […] On the following day, floating cells were pooled with adherent cells harvested after brief incubation with 0.25% Trypsin/EDTA solution (Gibco/In-Vitrogen Inc.). Cells were centrifuged and supernatant was discarded, and cell pellet was re-suspended with 0.2 ml of Annexin-V binding buffer, followed by addition of 1 μl Annexin-FITC and 1 μl PI (propidium iodide). The percentage of viable cells was determined by a 3-color FACSort instrument and data analyzed by Flow-Jo program, scoring Annexin V-negative, PI-negative as viable cells.

BP3 cell line = assay: Apoptosis, Annexin V-FITC and propidium iodide assay, BP3; type: cell-based, human
Protocol: The apoptotic activity of the compounds against BP3 cells was assessed by staining with Annexin V- and propidium iodide (PI). BP3 cell line was cultured in RPMI 1640 medium (Mediatech Inc., Herndon, Va. 20171) containing 10% fetal bovine serum (Mediatech Inc., Herndon, Va. 20171) and Penicillin/Streptomycin (Mediatech Inc., Herndon, Va. 20171). […] The percentage of viable cells was determined by FITC-Annexin V- and propidium iodide (PI)-labeling, using an Apoptosis Detection kit (BioVision Inc.), and analyzing stained cells by flow cytometry (FACSort; Bectin-Dickinson, Inc.; Mountain View, Calif.). Cells that were annexin-V-negative and PI-negative were considered viable.

[3] = test system: cancer cells that overexpress Mcl-1; conditions: references 32, 36; cited from earlier work
[4] = test system: MDA-MB-231 breast cancer cells; conditions: reference 13; read-out: EC50 in killing MDA-MB-231 breast cancer cells; cited from earlier work
Bcl-XL [5] = molecular target: T1, Bcl-XL (Homo sapiens, UniProt Q07817); assay: Isothermal Titration Calorimetry assay (ITC); type: binding; conditions: Kd ratio versus 12-14
[6] = rat, 40 min
Source text: as §1

[7] = Cell membrane permeability (PAMPA, LogPe); type: in vitro ADME; conditions: compared to 12-14
Source text: as §1

[8] = test system: wild type mouse embryonic fibroblast cells (MEF/WT); assay: Apoptosis, FITC-Annexin V/PI assay, MEF/WT; type: cell-based; conditions: 30 μM
Protocol: Wild-type MEF and DKO/MEF were seeded in 24-well plate at a seeding density of half a million per well (in 1 ml of DMEM medium supplemented by 10% FCS). Next day, compound was added to wild-type and DKO cells at final concentration of 0, 2.5, 5.0, 7.5, 10 and 30 μM. On the following day, floating cells were pooled with adherent cells harvested after brief incubation with 0.25% Trypsin/EDTA solution (Gibco/In-Vitrogen Inc.). Cells were centrifuged and supernatant was discarded, and cell pellet was re-suspended with 0.2 ml of Annexin-V binding buffer, followed by addition of 1 μl Annexin-FITC and 1 μl PI (propidium iodide). The percentage of viable cells was determined by a 3-color FACSort instrument and data analyzed by Flow-Jo program, scoring Annexin V-negative, PI-negative as viable cells.

[9] = test system: Bcl-2 transgenic mice (B6Bcl2); assay: Bcl-2 transgenic mice, spleen weight; type: in vivo, mouse; conditions: for in vivo activity in Bcl-2 transgenic mice: single i.p. 42 mg/kg
Protocol: Transgenic mice expressing Bcl-2 have been described as the B6 line.^48 The BCL-2 transgene represents a minigene version of a t(14;18) translocation in which the human BCL-2 gene is fused with the immunoglobulin heavy-chain (IgH) locus and associated IgH enhancer. The transgene was propagated on the Balb/c background.
After 24 hours, B6Bcl2 mice were sacrificed by intraperitoneal injection of lethal dose of Avertin. Spleen was removed and weighed.

M2182 cells = assay: Prostate cancer xenograft in athymic nude mice; type: in vivo, mouse; conditions: for inhibitory effect of tumor size compared with the control group: all doses, i.p. every 2 days
Protocol: Cells were then selected for 2 weeks in 200 μg/ml of hygromycin, and individual colonies were isolated, expanded, and maintained in 5 μg/m1 hygromycin. The overexpression of luciferase in these clones was confirmed by measuring luciferase activity.
M2182-Luc cells (1×10^6) were injected s.c. in 100 μL of PBS in the left and right flanks of male athymic nude mice (NCR^nu/nu, 4 weeks old, 20 g body weight) as described previously.^40 After establishing visible tumors of ˜75-mm^3, requiring ˜5-6 days, compound dissolved in 500 μL of solvent (ethanol/Cremophor EL/saline=10:10:80) were injected intraperitoneally (i.p.). The injections were given every 2 days for a total of nine injections. […] A minimum of five animals was used per experimental condition. For in vivo imaging of tumors, the mice were anesthetized and injected i.p. with 150 mg/kg luciferin and light emitted from each tumor was determined using a Xenogen system with CCD camera with an integration time of 1 min. Luminescence measurements were made using Living Image software (version 2.50.1; Xenogen). At the end of the experiment, the animals were sacrificed, and the tumors were removed and photographed.

Bcl-XL [10] = molecular target: T1, Bcl-XL; assay: NMR binding assays (1D 1H-NMR, 2D [15N,1H]-TROSY), Bcl-XL; conditions: 2D TROSY at ligand/protein ratio 1:1
Mcl-1 = Mcl-1 (Homo sapiens, UniProt Q07820); assay: 2D [15N,1H]-TROSY NMR binding, Mcl-1; conditions: 2D TROSY, ligand/protein ratio of 2:1
[11] = Chemical stability at different temperatures; type: physicochemical; conditions: compared to 12-14

T1 sequence (Q07817 whole entry): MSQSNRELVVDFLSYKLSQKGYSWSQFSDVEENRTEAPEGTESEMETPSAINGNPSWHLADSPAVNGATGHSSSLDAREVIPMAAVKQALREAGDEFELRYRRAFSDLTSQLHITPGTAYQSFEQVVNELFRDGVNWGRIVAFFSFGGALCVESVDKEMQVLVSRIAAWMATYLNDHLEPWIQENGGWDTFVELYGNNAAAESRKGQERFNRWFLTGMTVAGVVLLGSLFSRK
Mcl-1, sequence (Q07820 whole entry): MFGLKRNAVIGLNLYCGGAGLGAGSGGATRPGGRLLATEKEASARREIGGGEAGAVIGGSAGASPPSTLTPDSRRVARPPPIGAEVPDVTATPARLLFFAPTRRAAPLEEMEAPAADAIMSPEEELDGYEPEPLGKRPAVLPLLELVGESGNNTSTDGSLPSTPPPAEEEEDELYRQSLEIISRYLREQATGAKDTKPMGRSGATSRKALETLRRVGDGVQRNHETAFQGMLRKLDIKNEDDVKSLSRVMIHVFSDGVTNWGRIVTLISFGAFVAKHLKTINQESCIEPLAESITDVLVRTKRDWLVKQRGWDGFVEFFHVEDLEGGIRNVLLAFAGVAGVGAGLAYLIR

Q: Which EC50 (H460 cells) does the source give for `Cc1cc2c(C(=O)NCC(C)c3ccccc3)c(O)c(O)cc2c(O)c1-c1c(C)cc2c(C(=O)NCC(C)c3ccccc3)c(O)c(O)cc2c1O` (single isomer, unassigned) [Compound 14] here?
A: Its EC50 is 0.8 ± 0.09 µM.

Q: And the “Plasma stability (T = 1 h)” value [1]?
A: Its value is 41%.

Q: And the “toxicity in MEF/DKO cells” value [2]?
A: The value was “almost equally effective in killing both MEF/WT and MEF/DKO”.

Q: What does the source list for `CN(C)CC[C@H](CSc1ccccc1)Nc1ccc(S(=O)(=O)NC(=O)c2ccc(N3CCN(Cc4ccccc4-c4ccc(Cl)cc4)CC3)cc2)cc1[N+](=O)[O-]` [ABT-737]?
A: apoptosis induction / cytotoxic activity against BP3 cell line (BP3 cell line): no cytotoxic activity; effectiveness against cancer cells that overexpress Mcl-1 [3]: not effective

Q: With `Cc1cc2c(C(C)C)c(O)c(O)c(C=O)c2c(O)c1-c1c(C)cc2c(C(C)C)c(O)c(O)c(C=O)c2c1O` [(+) 1] as the compound, how does the EC50 [4] read?
A: The EC50 was ~10 µM.

Q: Which “times more potent than other isomers 12-14 in ITC assay” value (Bcl-XL [5]) does the source give for `Cc1cc2c(C(=O)NC[C@@H](C)c3ccccc3)c(O)c(O)cc2c(O)c1-c1c(C)cc2c(C(=O)NC[C@H](C)c3ccccc3)c(O)c(O)cc2c1O` (atropisomer, axis not shown) [Compound 11] here?
A: The value was 4-20 times.

Q: And the “Plasma stability (T = 1 h)” value [1]?
A: The value was 41%.

Q: And the “microsomal stability” value [6]?
A: Its value is “relatively good microsomal stability”.

Q: And the “cell membrane permeability” value [7]?
A: The value was “superior cell membrane permeability”.

Q: What about the “wild type MEF cells killed” value [8] of the same compound?
A: Its value is ~70%.

Q: And the “cytotoxicity against bax−/−bak−/− cells (summary statement)” value [2]?
A: The value was “less cytotoxicity; also recorded: little cytotoxicity”.

Q: And the “toxicity in MEF/DKO cells” value [2]?
A: The value was “slight toxicity”.

Q: What about the “in vivo activity in Bcl-2 transgenic mice” value [9] of the same compound?
A: The value was “superior in vivo activity”.

Q: What about the spleen weight reduction ([9]; single i.p. injection at 42 mg/kg, 24 hours) of the same compound?
A: Its spleen weight reduction is “more than 30%”.

Q: And the “tumor growth inhibited to % of the tumor volume in the control group” value (M2182 cells; 3 mg/kg i.p. every 2 days, nine injections)?
A: Its value is ~60%.

Q: And the “inhibition of tumor growth in both flanks” value (M2182 cells; 5 mg/kg i.p. every 2 days, nine injections)?
A: The value was “near complete inhibition of tumor growth”.

Q: And the “inhibitory effect of tumor size compared with the control group” value (M2182 cells)?
A: The value was “marked inhibitory effect of tumor size”.

Q: What about the “NMR binding to Bcl-XL” value (Bcl-XL [10]) of the same compound?
A: Its value is “larger chemical shift perturbations; also recorded: low to submicromolar binding affinity”.

Q: What about the “NMR binding to Mcl-1” value (Mcl-1) of the same compound?
A: Its value is “significant binding”.

Q: And the “chemical stability” value [11]?
A: The value was “better chemical stability”.

Q: Which “cytotoxicity in MEF/DKO cells compared to isomer 11” value ([2]; 3-30 μM) does the source give for `Cc1cc2c(C(=O)NCC(C)c3ccccc3)c(O)c(O)cc2c(O)c1-c1c(C)cc2c(C(=O)NCC(C)c3ccccc3)c(O)c(O)cc2c1O` (racemic) [Compound 4] here?
A: Its value is “higher cytotoxicity in MEF/DKO cells”.

Q: What about the “inhibitory effect of tumor size” value (M2182 cells; 10 mg/kg i.p. every 2 days, nine injections) of the same compound?
A: Its value is “weak inhibitory effect of tumor size”.

Q: And the “inhibition of tumor growth in both flanks” value (M2182 cells; 25 mg/kg i.p. every 2 days, nine injections)?
A: Its value is “near complete inhibition of tumor growth”.

Q: And the “inhibitory effect of tumor size compared with the control group” value (M2182 cells)?
A: Its value is “marked inhibitory effect of tumor size”.

Q: Which “Plasma stability (T = 1 h)” value [1] does the source give for `Cc1cc2c(C(=O)NCC(C)c3ccccc3)c(O)c(O)cc2c(O)c1-c1c(C)cc2c(C(=O)NCC(C)c3ccccc3)c(O)c(O)cc2c1O` (single isomer, unassigned) [Compound 13] here?
A: The value was 42%.

Q: Which “Plasma stability (T = 1 h)” value [1] does the source give for `Cc1cc2c(C(=O)NCC(C)c3ccccc3)c(O)c(O)cc2c(O)c1-c1c(C)cc2c(C(=O)NCC(C)c3ccccc3)c(O)c(O)cc2c1O` (single isomer, unassigned) [Compound 12] here?
A: The value was 28%.

Q: What about the “plasma stability” value ([1]; compared to other diastereoisomers) of the same compound?
A: The value was “decreased plasma and microsomal stability”.

Q: What about the “microsomal stability” value [6] of the same compound?
A: The value was “decreased plasma and microsomal stability”.

Q: And the “in vivo activity in Bcl-2 transgenic mice” value [9]?
A: Its value is “weak in vivo activity”.
